Results: patent publication US20240261447A1, “COMPOSITIONS AND METHODS FOR TREATING CONDITIONS RELATED TO THE HEPATO[…]” (THE REGENTS OF THE UNIVERSITY OF MICHIGAN, priority 2021, published 2024)

Test system: Sphincter of Oddi
Settings: co-administered with Fe-PSMPs via oral gavage; pancreatic tumor-bearing mice
Procedure: Female C57BL/6 mice 6-8 weeks of age (Jackson Laboratories) were orthotopically inoculated in pancreas with KPC-Luc cells (1.5×10^4). […] During the biodistribution studies, ^68Ga-PSMPs, Fe-PSMPs or Nano-Calcium were administered in mice via oral gavage. Mice were euthanized 2 hours after oral gavage. The pancreas and other major organs were collected and wet-weighted and the radioactivity in the organs were measured by a gamma counter (Wizard 2 1-Detector, PerkinElmer).

With `O=[N+]([O-])OCC(CO[N+](=O)[O-])O[N+](=O)[O-]` [nitroglycerin] the “increase in the accumulation of Fe-PSMPs in the pancreas” value was 10 fold.
